Values joined by “and” are separate entries in the source; they are usually repeats but may differ in a detail not shown here. Identical values can stand only once. Like-named read-outs stand apart in the source and are kept apart here. Marks after values point to notes of the source that are not given here.
What was measured:
M. tuberculosis Erdman [1] = format: cell-based
[2] = molecular target: T1, M. tuberculosis glutamine synthetase (Mycobacterium tuberculosis, UniProt P9WN39); format: biochemical, M. tuberculosis Erdman
T1 sequence (P9WN39 2-478): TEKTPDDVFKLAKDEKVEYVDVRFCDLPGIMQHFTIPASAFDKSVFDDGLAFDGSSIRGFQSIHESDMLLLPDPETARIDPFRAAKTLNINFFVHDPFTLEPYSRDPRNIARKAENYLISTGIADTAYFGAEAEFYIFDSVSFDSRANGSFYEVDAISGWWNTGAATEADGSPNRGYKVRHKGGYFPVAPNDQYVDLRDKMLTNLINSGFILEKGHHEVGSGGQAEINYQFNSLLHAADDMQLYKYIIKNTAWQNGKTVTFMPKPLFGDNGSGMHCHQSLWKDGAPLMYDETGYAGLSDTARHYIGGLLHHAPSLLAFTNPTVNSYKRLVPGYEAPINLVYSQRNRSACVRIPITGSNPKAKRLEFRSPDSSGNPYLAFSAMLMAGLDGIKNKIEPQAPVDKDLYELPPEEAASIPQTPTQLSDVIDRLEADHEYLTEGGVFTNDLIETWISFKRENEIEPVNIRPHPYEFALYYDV

[3] = test system: sheep brain glutamine synthetase; format: biochemical
[4] = molecular target: T2, E. coli glutamine synthetase (Escherichia coli, UniProt P0A9C5); format: biochemical, E. coli W
T2 sequence (P0A9C5 2-469 limits assumed): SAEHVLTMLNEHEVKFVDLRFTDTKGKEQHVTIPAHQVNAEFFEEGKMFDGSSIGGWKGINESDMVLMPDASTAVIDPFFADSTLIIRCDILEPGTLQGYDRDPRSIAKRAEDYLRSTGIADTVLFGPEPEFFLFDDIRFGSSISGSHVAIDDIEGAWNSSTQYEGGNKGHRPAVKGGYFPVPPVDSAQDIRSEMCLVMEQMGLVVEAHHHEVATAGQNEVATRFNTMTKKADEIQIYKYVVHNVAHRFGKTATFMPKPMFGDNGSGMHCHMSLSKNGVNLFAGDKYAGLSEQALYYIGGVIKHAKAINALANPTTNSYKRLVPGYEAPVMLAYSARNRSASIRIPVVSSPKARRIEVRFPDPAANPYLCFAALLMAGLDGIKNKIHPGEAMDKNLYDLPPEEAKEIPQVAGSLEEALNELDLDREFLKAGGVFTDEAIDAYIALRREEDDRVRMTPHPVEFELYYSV

M. tuberculosis = format: cell-based
M. bovis = format: cell-based
[5] = test system: L. pneumophila Philadelphia 1; format: cell-based; conditions: 24 h
M. tuberculosis Erdman [6] = format: cell-based; remark: listed apart in the source
[7] = test system: M. tuberculosis superoxide dismutase; format: cell-based; conditions: 20 μM
M. phlei = format: cell-based; conditions: 3 d
[8] = test system: recombinant M. tuberculosis glutamine synthetase; format: cell-based, M. tuberculosis (expressed in M. smegmatis); conditions: 200 μM
[9] = molecular target: T1, M. tuberculosis glutamine synthetase; format: cell-based, M. tuberculosis (expressed in M. smegmatis); conditions: 200 μM
[10] = test system: γ-glutamylcysteine synthetase; conditions: in contrast to glutamine synthetase; cited from earlier work
M. avium = format: cell-based
E. coli DH5α = format: cell-based; conditions: 6 h
M. avium (25291; ATCC) = format: cell-based
M. smegmatis = format: cell-based
M. bovis BCG = format: cell-based
M. tuberculosis H37Rv = format: cell-based
[11] = molecular target: T1, M. tuberculosis glutamine synthetase; format: cell-based, M. tuberculosis Erdman

CP(=O)(O)CCC(N)C(=O)O (racemic) [D,L-phosphinothricin]
cell density lag behind uninhibited cultures (M. tuberculosis Erdman [1]; 20, 200, 2,000 μM): 0.5–1.5 log units | remaining enzyme activity (% of initial activity) ([2]; 2 µM): < 10% and 3–10% | remaining enzyme activity (% of initial activity) ([2]; 20 μM): ≤ 0.5% | remaining enzyme activity (% of initial activity) ([2]; 200 μM): ≤ 0.5% | inactivation at the highest dose of inhibitor [3]: not completely inactivated | remaining enzyme activity (% of initial activity) [3]: ~25% | remaining enzyme activity (% of initial activity) ([3]; 2 μM): 60% | Ki ([3]; read-out: Ki D,L-Ppt): 16.4 µM | remaining enzyme activity (% of initial activity) ([4]; 2 µM): < 10% and 3–10% | remaining enzyme activity (% of initial activity) ([4]; 20 μM): ≤ 0.5% | remaining enzyme activity (% of initial activity) ([4]; 200 μM): ≤ 0.5%

NCC[C@H](O)C(=O)N[C@@H]1C[C@H](N)[C@@H](O[C@H]2O[C@H](CN)[C@@H](O)[C@H](O)[C@H]2O)[C@H](O)[C@H]1O[C@H]1O[C@H](CO)[C@@H](O)[C@H](N)[C@H]1O [Amikacin, amikacin]
influence on the content of either poly-L-glutamate/glutamine or D,L-alanine (M. tuberculosis): little influence | D,L-Alanine (M. tuberculosis; 0.06 μg/ml): 29.1 μg/10^10 Cells | Poly-L-Glutamate/glutamine (M. tuberculosis; 0.06 μg/ml): 49.9 μg/10^10 Cells | D,L-Alanine (M. tuberculosis; 0.25 μg/ml): 26.3 μg/10^10 Cells | Poly-L-Glutamate/glutamine (M. tuberculosis; 0.25 μg/ml): 43.2 μg/10^10 Cells | D,L-Alanine (M. tuberculosis; 1 μg/ml): 12.0^a μg/10^10 Cells | Poly-L-Glutamate/glutamine (M. tuberculosis; 1 μg/ml): 26.0^a μg/10^10 Cells

CS(=N)(=O)CC[C@H](N)C(=O)O (stereo partly drawn) [L-methionine-S-sulfoximine]
sensitivity of growth to the inhibitor (M. bovis): highly sensitive | sensitivity of growth to the inhibitor [5]: insensitive | growth of intracellular bacteria (M. tuberculosis Erdman [6]; 2 μM): slowed | growth of intracellular bacteria (M. tuberculosis Erdman [6]; 200 μM): strongly inhibited | effect on cell growth (M. tuberculosis Erdman [1]): blocked cell growth almost immediately | growth (M. tuberculosis Erdman [1]): completely inhibited | growth lag behind uninhibited cultures with L-glutamine added (M. tuberculosis Erdman [1]): 0.4–1.3 log units | reversal of growth inhibition by L-glutamine (M. tuberculosis Erdman [1]): almost complete | growth lag behind untreated control cultures (M. tuberculosis Erdman [1]; 0.2 μM): 0.1–0.2 log units | growth plateau below that of control cultures (M. tuberculosis Erdman [1]; 2 μM): ~2 log units | sensitivity of growth to the inhibitor (M. tuberculosis Erdman [1]; 0.2-200 μM): highly sensitive | activity or quantity of extracellular superoxide dismutase compared with untreated cultures [7]: no reduction | sensitivity of growth to the inhibitor (M. phlei): insensitive | D,L-Alanine (M. tuberculosis; 0.2 μM): 21.2 μg/10^10 Cells | Poly-L-Glutamate/glutamine (M. tuberculosis; 0.2 μM): 18.2 μg/10^10 Cells | D,L-Alanine (M. tuberculosis; 2 μM): 17.7 μg/10^10 Cells | Poly-L-Glutamate/glutamine (M. tuberculosis; 2 μM): 9.8 μg/10^10 Cells | D,L-Alanine (M. tuberculosis; 20 μM): 17.8 μg/10^10 Cells | Poly-L-Glutamate/glutamine (M. tuberculosis; 20 μM): 6.1 μg/10^10 Cells | decrease of cell-associated glutamine synthetase activity (sum of endogenous and recombinant enzymes) [8]: 17% | decrease of extracellular glutamine synthetase activity of the recombinant strain [9]: 89% | effect on morphology, doubling time, or viability (THP-1 human monocytes): no effect | nature of the inhibition of γ-glutamylcysteine synthetase [10]: reversible | sensitivity of growth to the inhibitor (M. avium): intermediate | sensitivity of growth to the inhibitor (E. coli DH5α): insensitive | remaining enzyme activity (% of initial activity) ([2]; 2 µM): < 10% and 3–10% | remaining enzyme activity (% of initial activity) ([2]; 20 μM): < 10% | remaining enzyme activity (% of initial activity) ([2]; 200 μM): ≤ 0.5% | inactivation at the highest dose of inhibitor [3]: not completely inactivated | remaining enzyme activity (% of initial activity) ([3]; 2 μM): ~40% | Ki ([3]; read-out: Ki L-Ms): 110 µM | growth of intracellular bacteria (M. avium (25291; ATCC); 2 μM): uninhibited | growth of intracellular bacteria (M. avium (25291; ATCC); 200 μM): strongly inhibited | growth rate of parent and recombinant M. smegmatis strain (M. smegmatis; 200 μM): unaffected | sensitivity of growth to the inhibitor (M. smegmatis; 3 d): insensitive | sensitivity of growth to the inhibitor (M. bovis BCG): highly sensitive | sensitivity of growth to the inhibitor (M. tuberculosis H37Rv): highly sensitive | remaining enzyme activity (% of initial activity) ([4]; 2 µM): < 10% and 3–10% | remaining enzyme activity (% of initial activity) ([4]; 20 μM): < 10% | remaining enzyme activity (% of initial activity) ([4]; 200 μM): ≤ 0.5% | effect on the quantity of glutamine synthetase protein exported [11]: no detectable effect | cell-associated glutamine synthetase activity (plateau) ([11]; 20 μM): ~50 mU | decrease of cell-associated glutamine synthetase activity from the uninhibited level ([11]; 20 μM): 14% | extracellular glutamine synthetase activity ([11]; 20 μM): ~4.5 mU | reduction of extracellular glutamine synthetase activity from the uninhibited level ([11]; 20 μM): 80%

CO[C@H]1/C=C/O[C@@]2(C)Oc3c(C)c(O)c4c(O)c(c(/C=N/N5CCN(C)CC5)c(O)c4c3C2=O)NC(=O)/C(C)=C\C=C\[C@H](C)[C@H](O)[C@@H](C)[C@@H](O)[C@@H](C)[C@H](OC(C)=O)[C@@H]1C [Rifampin, rifampin]
influence on the content of either poly-L-glutamate/glutamine or D,L-alanine (M. tuberculosis): little influence | D,L-Alanine (M. tuberculosis; 0.0125 μg/ml): 23.6 μg/10^10 Cells | Poly-L-Glutamate/glutamine (M. tuberculosis; 0.0125 μg/ml): 54.2 μg/10^10 Cells | D,L-Alanine (M. tuberculosis; 0.05 μg/ml): 25.1 μg/10^10 Cells | Poly-L-Glutamate/glutamine (M. tuberculosis; 0.05 μg/ml): 41.6 μg/10^10 Cells | D,L-Alanine (M. tuberculosis; 0.2 μg/ml): 20.0^a μg/10^10 Cells | Poly-L-Glutamate/glutamine (M. tuberculosis; 0.2 μg/ml): 40.0^a μg/10^10 Cells | effect on intracellular or extracellular glutamine synthetase activity [11]: negligible effect

CC[C@@H](CO)NCCN[C@@H](CC)CO [ethambutol]
effect on intracellular or extracellular glutamine synthetase activity [11]: negligible effect

NNC(=O)c1ccncc1 [isoniazid]
effect on intracellular or extracellular glutamine synthetase activity [11]: negligible effect

NC(=O)c1cnccn1 [pyrazinamide]
effect on intracellular or extracellular glutamine synthetase activity [11]: negligible effect

— publication PMC2193054 (The Journal of Experimental Medicine, 1999)
